Test results published in patent publication US20110152112A1, “DIAGNOSIS AND TREATMENT OF REVERSE CHOLESTEROL TRANSPORT DEFICIENCY-RELATED DISEASES” (Artery Therapeutics, Inc., priority 2009, published 2011).

Test system: J774 mouse macrophages (foam-cells)
Test: Lipid efflux from J774 macrophage foam-cells to media (nascent HDL, LC-MS/MS)
Format: cell-based
Procedure: Study 1: Isolation of Nascent HDL from Incubations of Macrophage Foam-Cells with AT5261 and apoA-I.
A commercial transformed macrophage cell-line, J774 (mouse), was used to evaluate lipid efflux responses to peptide ATI-5261 and ApoA-I. Macrophage foam-cells were prepared and exposed to lipid-free AT5261 peptide and ApoA-I, respectively; Nascent HDL products resulting from stimulation of cholesterol efflux were isolated and concentrated from conditioned medium and analyzed for lipid content.
Near confluent T175-flasks (30 total) of J774 mouse macrophages were incubated (2 days) with 0.1 mg/ml acetylated LDL in […] culture medium containing 1% FBS, to produce foam-cells. On the day of the experiment, cell monolayers were rinsed (3 times) with 20 ml/flask of HBSS, incubated 1 h with 0.2% BSA in serum-free RPMI-1640 medium, then rinsed (3 times) with serum-free RPMI. Rinsed cells were then exposed (20 ml/flask) to either apoA-I (15 flasks) or ATI-5261 (15 flasks), at a final concentration of 10 microgram/ml serum free RPMI. Following 20 h, conditioned medium was recovered from flasks, pooled within groups, and filtered (0.2 mμ). The pooled medium (˜300 ml) was subsequently concentrated to 5 ml using an Amicon stir-cell (10 K membrane) and density adjusted to 1.21 g/ml with solid NaBr. Nascent HDL was isolated by ultracentrifugation (120K, 5 h 20 minutes, 10° C.) using a TL-120 centrifuge, samples dialyzed to saline (pH=7.4) and filter sterilized (0.2 nip, Nalgene capsules). Isolated material was used for detailed MS of PL subclasses, subjected to non-denaturing gradient gel electrophoresis and protein lipid ratios determined by 280 abs. and commercial kits.
Samples were kept at −80° C. until extraction. Samples were allowed to thaw on ice and a small aliquot of each sample was transferred into siliconized glass tubes followed by addition of ultrapure water. Samples were spiked with either a mixture of C17-based ceramide, sphingosine, sphingosine-1-phosphate and sphingomyelin (10 ng of each as internal sphingolipid standards) or ([…] of deuterated 16:0/16:0 PC as internal phosphatidylcholine standard). Samples were subjected to a Bligh and Dyer extraction (Bligh, E. G., Dryer, W. J. (1959) Can J Biochem physiol 37, 911-917). Lipid extracts were dried under stream of nitrogen at room temperature. The dried lipid extracts were then reconstituted in […] ethanol/formic acid (99.8/0.2) and kept at 4° C. until LC-MS/MS analysis. Extracts were injected onto a reverse phase C18 HPLC Column to separate and resolve the various lipids. Phosphatidylcholine and sphingolipids were eluted off the column and analyzed on a triple quadrupole mass spectrometer Sciex API 5500. The data acquisition was performed in a targeted MRM (MS/MS) mode using lipid specific precursor ion to product ion (or parent to daughter ion) mass transitions resulting in highly sensitive and specific quantitative data. The resulting data was processed using Applied Biosystems Analyst 1.4.2 software.

ApoA-I: apolipoprotein A-I, natures strongest effluxer, lipid-free comparator
Cholesterol: Phospholipid molar ratio mobilized to media (10 microgram/ml, 20 h, (S.D.)): 2.89 (S.D. 0.68) | PC mobilized to media (LC-MS/MS, 10 microgram/ml, 20 h): 19 | LPC mobilized to media (LC-MS/MS, n=2): 40 | LPC media concentrations (all LPC): increased | phospholipid (PL) media concentrations (all PL): increased | type of LPC mobilized (values adjusted for the 2-fold difference): more of longer chain and more saturated LPCs
